One molecule from patent US20230136297A1, “Methods Of Treating Fabry Disease In Patients Having A Mutation In The GLA Gene” (Amicus Therapeutics, Inc., priority 2020, published 2023) can be followed below.

Common to all, as to experiment: α-Gal A activity in lysates of transfected HEK-293 cells ± migalastat (HEK assay)
Common to all, as to type: cell-based

The target in assay [1] is T1, α-Gal A mutant form I133F (Homo sapiens, UniProt P06280, I133F).
T1 construct: expressed in transfected cells; host or cells: HEK-293
T1 sequence (P06280 32-429 I133F): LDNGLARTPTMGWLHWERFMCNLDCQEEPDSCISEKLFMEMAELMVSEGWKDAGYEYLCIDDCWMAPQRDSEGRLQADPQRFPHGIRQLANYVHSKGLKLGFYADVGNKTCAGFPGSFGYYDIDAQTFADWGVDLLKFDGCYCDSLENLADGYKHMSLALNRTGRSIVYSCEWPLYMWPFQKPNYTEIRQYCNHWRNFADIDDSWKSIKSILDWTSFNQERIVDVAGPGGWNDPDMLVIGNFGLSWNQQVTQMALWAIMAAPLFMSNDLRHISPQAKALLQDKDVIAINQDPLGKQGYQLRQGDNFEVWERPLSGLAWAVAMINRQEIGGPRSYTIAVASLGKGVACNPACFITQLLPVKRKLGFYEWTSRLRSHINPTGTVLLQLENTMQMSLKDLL
An excerpt: (§1) Such mutations or variants are also referred to herein as “HEK assay amenable” mutations or variants.
(§2) The α-Gal A activity is expressed as the nmoles of free 4-MU released per milligram of protein per hour (nmol/mg/hr).

For assay [2], the target named is T2, α-Gal A mutant form A257T (Homo sapiens, UniProt P06280, A257T).
T2 construct: expressed in transfected cells; host or cells: HEK-293
T2 sequence (P06280 32-429 A257T): T1 sequence (P06280 32-429 I133F) with F102I, A226T
From the text: as §1, §2

For assay [3], the target named is T3, α-Gal A mutant form R196T (Homo sapiens, UniProt P06280, R196T).
T3 construct: expressed in transfected cells; host or cells: HEK-293
T3 sequence (P06280 32-429 R196T): T1 sequence (P06280 32-429 I133F) with F102I, R165T
From the text: as §1, §2

In assay [4] the target is T4, α-Gal A mutant form A143V (Homo sapiens, UniProt P06280, A143V).
T4 construct: expressed in transfected cells; host or cells: HEK-293
T4 sequence (P06280 32-429 A143V): T1 sequence (P06280 32-429 I133F) with F102I, A112V
From the text: as §1, §2

Assay [5] deals with T5, α-Gal A mutant form G375A (Homo sapiens, UniProt P06280, G375A).
T5 construct: expressed in transfected cells; host or cells: HEK-293
T5 sequence (P06280 32-429 G375A): T1 sequence (P06280 32-429 I133F) with F102I, G344A
From the text: as §1, §2

[6] abbreviates: 10 μM migalastat minus baseline.
Setting [7] is: HEK-293 lysates, 10 μM migalastat 5 days, mean ± SEM.

SMILES strings stand for the structures. Where a chain is given by its changes, count along the chain named.

As for `OC[C@H]1NC[C@H](O)[C@@H](O)[C@H]1O` [migalastat, (2R,3S,4R,5S)-2-(hydroxymethyl) piperdine-3,4,5-triol], the “Absolute increase (% WT)” value in assay [1] (setting [6]) is reported as 3.1 % WT; in assay [2] (setting [6]), 40.6 % WT; in assay [3] (setting [6]), 22.4 % WT; in assay [4] (setting [6]) it was 31.7 % WT; in assay [5] (setting [6]), 12 % WT. Besides, the Relative increase in assay [1] (10 μM migalastat ÷ baseline) worked out at 5.27; in assay [2] (10 μM migalastat ÷ baseline) it was 2.56; in assay [3] (10 μM migalastat ÷ baseline), 1.48; in assay [4] (10 μM migalastat ÷ baseline), 3.24; in assay [5] (10 μM migalastat ÷ baseline), 1.23. Moreover, the “10 μM migalastat α-Gal A activity” value stood at 1542 ± 154 nmol/mg/h in assay [1] (setting [7]); 18990 ± 1196 nmol/mg/h in assay [2] (setting [7]); 26217 ± 1611 nmol/mg/h in assay [3] (setting [7]); 13309 ± 921 nmol/mg/h in assay [4] (setting [7]); 24212 ± 1520 nmol/mg/h in assay [5] (setting [7]). Moreover, the “10 μM migalastat α-Gal A activity (% WT)” value in assay [1] (setting [7]) was found to be 3.8 ± 0.3 % WT; in assay [2] (setting [7]) it was 66.2 ± 4.1 % WT; in assay [3] (setting [7]), 69.5 ± 2.6 % WT; in assay [4] (setting [7]) it was 45.5 ± 3.2 % WT; in assay [5] (setting [7]), 66.8 ± 2.4 % WT.
